In data set [1] the target is T1, PtoMBD (Picrophilus oshimae, UniProt Q6L1T9, D309T).
T1 construct: gene PTO0478
Description: radio-TLC activity assay. It is filed as biochemical. The settings on record: labelled compound; 1 μM GGPP, 5 mM MgCl2, sodium acetate pH 5.5, 60 °C.

The target in data set [2] is T2, PtoMBD (Picrophilus oshimae, UniProt Q6L1T9, R218A/R220A).
T2 construct: gene PTO0478
The data set is described as follows: radio-TLC activity assay. The data set is classed as biochemical. Conditions: labelled compound; 1 μM GGPP, 5 mM MgCl2, sodium acetate pH 5.5, 60 °C.

The target of data set [3] is T3, PtoMBD (Picrophilus oshimae, UniProt Q6L1T9, D309N).
T3 construct: gene PTO0478
The data set is described as follows: radio-TLC activity assay. It is filed as biochemical. Conditions: labelled compound; 1 μM GGPP, 5 mM MgCl2, sodium acetate pH 5.5, 60 °C.

Data set [4] has as its target T4, PtoMBD (Picrophilus oshimae, UniProt Q6L1T9).
T4 construct: gene PTO0478
T4 sequence (Q6L1T9 1-349): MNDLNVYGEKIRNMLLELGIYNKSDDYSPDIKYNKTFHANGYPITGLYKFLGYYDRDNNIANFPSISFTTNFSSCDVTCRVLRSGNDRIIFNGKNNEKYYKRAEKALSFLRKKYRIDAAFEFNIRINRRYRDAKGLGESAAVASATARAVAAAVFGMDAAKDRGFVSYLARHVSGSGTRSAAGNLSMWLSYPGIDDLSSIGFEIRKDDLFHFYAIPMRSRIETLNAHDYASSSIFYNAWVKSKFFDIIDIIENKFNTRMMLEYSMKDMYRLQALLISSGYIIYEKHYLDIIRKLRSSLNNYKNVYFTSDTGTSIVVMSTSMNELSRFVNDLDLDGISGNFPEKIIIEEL
Description: X-ray crystal structure, […] Å. The data set is classed as binding. Conditions: endogenous E. coli ligand, identity assumed from density (oleic acid fitted), low occupancy, subunit A only; cavity overlapping ATP site of DMD.

Data set [5] deals with the molecule itself. The data set is described as follows: SEC; HiLoad 16/600 Superdex 200 prep grade, 20 mM sodium phosphate pH 7.4, 500 mM NaCl, 0.6 ml/min; calibrated with gel filtration markers. For orientation: SEC sorts molecules by how far they enter the pores of the column.

Consider three molecules from paper PMC9254496, “Crystal structure of mevalonate 3,5-bisphosphate decarboxylase reveals insight into the evolution of decarboxylases in the mevalonate metabolic pathways” (The Journal of Biological Chemistry, 2022).

T1 sequence (Q6L1T9 whole entry D309T): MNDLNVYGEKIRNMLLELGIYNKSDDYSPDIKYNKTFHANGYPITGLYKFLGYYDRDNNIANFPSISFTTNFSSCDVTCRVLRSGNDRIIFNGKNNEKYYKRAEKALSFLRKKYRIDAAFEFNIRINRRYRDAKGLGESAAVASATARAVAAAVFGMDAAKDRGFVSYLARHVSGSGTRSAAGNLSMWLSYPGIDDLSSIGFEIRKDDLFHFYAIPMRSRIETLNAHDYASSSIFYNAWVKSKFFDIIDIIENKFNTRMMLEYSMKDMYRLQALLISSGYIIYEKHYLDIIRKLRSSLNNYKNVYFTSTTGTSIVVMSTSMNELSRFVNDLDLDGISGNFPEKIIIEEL
T3 sequence (Q6L1T9 whole entry D309N): as the sequence (Q6L1T9 whole entry D309T) above, with T309N counted along it
T2 sequence (Q6L1T9 whole entry R218A/R220A): as the sequence (Q6L1T9 whole entry D309T) above, with R218A, R220A, T309D counted along it

For the molecule `C[C@@](CCOP(=O)(O)O)(CC(=O)O)OP(=O)(O)O` [MVA3,5BP], the MBD activity result on PtoMBD [1] is “mutants D309T and D309N leads to the complete loss of MBD activity”; on PtoMBD [2] it was “the R218A/R220A double mutant was as active as the WT”; on PtoMBD [3], “mutants D309T and D309N leads to the complete loss of MBD activity”. For the molecule `CCCCCCCC/C=C\CCCCCCCC(=O)O` [OLA], the “X-ray crystal structure, 2.2 Å” value at PtoMBD [4] is reported as “Oleic acid (OLA) fitted well in the electron density”.

B1: Picrophilus torridus mevalonate 3,5-bisphosphate decarboxylase (enzyme)
chain: T4 sequence (Q6L1T9 1-349)
notes: Mevalonate 3,5-bisphosphate decarboxylase of Picrophilus torridus, gene pto0478; calculated mass of the tagged protein 42,186 Da; also called PtoMBD; MBD; source: E. coli BL21(DE3), pET28a(+), purified (heat treatment, Ni-NTA, HP-Q for crystallization; heat treatment and Ni-NTA only for size-exclusion chromatography); not shown: polyhistidine, N-terminal, kept
The term stoichiometry N denotes the number of molecules, sites or subunits per partner or assembly. Consider B1, for which the “stoichiometry N” value in data set [5] stood at 2.
